Data taken from PubChem BioAssay AID1259407 (Chemical Carcinogenesis Research Information System (CCRIS), 2018).
Active and inactive are the calls of the source. The rule behind the calls is not given here.

Test system: CCRIS mutagenicity, Ames/micronucleus/aberration tests
Experiment: CCRIS mutagenicity studies
[1] = Test System: AMES SALMONELLA TYPHIMURIUM, Strain/Indicator: TA98, Metabolic Activation: NONE, Method: PREINCUBATION
[2] = Test System: AMES SALMONELLA TYPHIMURIUM, Strain/Indicator: TA98, Metabolic Activation: NONE, Method: STANDARD PLATE
[3] = Test System: AMES SALMONELLA TYPHIMURIUM, Strain/Indicator: TA100, Metabolic Activation: NONE, Method: PREINCUBATION
[4] = Test System: AMES SALMONELLA TYPHIMURIUM, Strain/Indicator: TA100, Metabolic Activation: NONE, Method: STANDARD PLATE

## Cc1ccccc1Cl
Test System: AMES SALMONELLA TYPHIMURIUM, Strain/Indicator: TA98, Metabolic Activation: HAMSTER, LIVER, S-9, AROCLOR 1254, Method: STANDARD PLATE
  mutagenic call: inactive; negative
[1]
  mutagenic call: inactive; negative
[2]
  mutagenic call: inactive; negative
Test System: AMES SALMONELLA TYPHIMURIUM, Strain/Indicator: TA98, Metabolic Activation: RAT LIVER S-9, PHENOBARBITAL AND BETA-NAPHTHOFLAVONE, Method: PREINCUBATION
  mutagenic call: inactive; negative
Test System: AMES SALMONELLA TYPHIMURIUM, Strain/Indicator: TA98, Metabolic Activation: RAT, LIVER, S-9, AROCLOR 1254, Method: STANDARD PLATE
  mutagenic call: inactive; negative
Test System: AMES SALMONELLA TYPHIMURIUM, Strain/Indicator: TA100, Metabolic Activation: HAMSTER, LIVER, S-9, AROCLOR 1254, Method: STANDARD PLATE
  mutagenic call: inactive; negative
[3]
  mutagenic call: inactive; negative
[4]
  mutagenic call: inactive; negative
Test System: AMES SALMONELLA TYPHIMURIUM, Strain/Indicator: TA100, Metabolic Activation: RAT LIVER S-9, PHENOBARBITAL AND BETA-NAPHTHOFLAVONE, Method: PREINCUBATION
  mutagenic call: inactive; negative
Test System: AMES SALMONELLA TYPHIMURIUM, Strain/Indicator: TA100, Metabolic Activation: RAT, LIVER, S-9, AROCLOR 1254, Method: STANDARD PLATE
  mutagenic call: inactive; negative
Test System: AMES SALMONELLA TYPHIMURIUM, Strain/Indicator: TA102, Metabolic Activation: NONE, Method: PREINCUBATION
  mutagenic call: inactive; negative
Test System: AMES SALMONELLA TYPHIMURIUM, Strain/Indicator: TA102, Metabolic Activation: RAT LIVER S-9, PHENOBARBITAL AND BETA-NAPHTHOFLAVONE, Method: PREINCUBATION
  mutagenic call: inactive; negative
Test System: AMES SALMONELLA TYPHIMURIUM, Strain/Indicator: TA104, Metabolic Activation: NONE, Method: PREINCUBATION
  mutagenic call: inactive; negative
Test System: AMES SALMONELLA TYPHIMURIUM, Strain/Indicator: TA104, Metabolic Activation: RAT LIVER S-9, PHENOBARBITAL AND BETA-NAPHTHOFLAVONE, Method: PREINCUBATION
  mutagenic call: inactive; negative
Test System: AMES SALMONELLA TYPHIMURIUM, Strain/Indicator: TA1535, Metabolic Activation: HAMSTER, LIVER, S-9, AROCLOR 1254, Method: STANDARD PLATE
  mutagenic call: inactive; negative
Test System: AMES SALMONELLA TYPHIMURIUM, Strain/Indicator: TA1535, Metabolic Activation: NONE, Method: PREINCUBATION
  mutagenic call: inactive; negative
Test System: AMES SALMONELLA TYPHIMURIUM, Strain/Indicator: TA1535, Metabolic Activation: NONE, Method: STANDARD PLATE
  mutagenic call: inactive; negative
Test System: AMES SALMONELLA TYPHIMURIUM, Strain/Indicator: TA1535, Metabolic Activation: RAT LIVER S-9, PHENOBARBITAL AND BETA-NAPHTHOFLAVONE, Method: PREINCUBATION
  mutagenic call: inactive; negative
Test System: AMES SALMONELLA TYPHIMURIUM, Strain/Indicator: TA1535, Metabolic Activation: RAT, LIVER, S-9, AROCLOR 1254, Method: STANDARD PLATE
  mutagenic call: inactive; negative
Test System: AMES SALMONELLA TYPHIMURIUM, Strain/Indicator: TA1537, Metabolic Activation: HAMSTER, LIVER, S-9, AROCLOR 1254, Method: STANDARD PLATE
  mutagenic call: inactive; negative
Test System: AMES SALMONELLA TYPHIMURIUM, Strain/Indicator: TA1537, Metabolic Activation: NONE, Method: PREINCUBATION
  mutagenic call: inactive; negative
Test System: AMES SALMONELLA TYPHIMURIUM, Strain/Indicator: TA1537, Metabolic Activation: NONE, Method: STANDARD PLATE
  mutagenic call: inactive; negative
Test System: AMES SALMONELLA TYPHIMURIUM, Strain/Indicator: TA1537, Metabolic Activation: RAT LIVER S-9, PHENOBARBITAL AND BETA-NAPHTHOFLAVONE, Method: PREINCUBATION
  mutagenic call: inactive; negative
Test System: AMES SALMONELLA TYPHIMURIUM, Strain/Indicator: TA1537, Metabolic Activation: RAT, LIVER, S-9, AROCLOR 1254, Method: STANDARD PLATE
  mutagenic call: inactive; negative
Test System: AMES SALMONELLA TYPHIMURIUM, Strain/Indicator: TA1538, Metabolic Activation: HAMSTER, LIVER, S-9, AROCLOR 1254, Method: STANDARD PLATE
  mutagenic call: inactive; negative
Test System: AMES SALMONELLA TYPHIMURIUM, Strain/Indicator: TA1538, Metabolic Activation: NONE, Method: PREINCUBATION
  mutagenic call: inactive; negative
Test System: AMES SALMONELLA TYPHIMURIUM, Strain/Indicator: TA1538, Metabolic Activation: NONE, Method: STANDARD PLATE
  mutagenic call: inactive; negative
Test System: AMES SALMONELLA TYPHIMURIUM, Strain/Indicator: TA1538, Metabolic Activation: RAT LIVER S-9, PHENOBARBITAL AND BETA-NAPHTHOFLAVONE, Method: PREINCUBATION
  mutagenic call: inactive; negative
Test System: AMES SALMONELLA TYPHIMURIUM, Strain/Indicator: TA1538, Metabolic Activation: RAT, LIVER, S-9, AROCLOR 1254, Method: STANDARD PLATE
  mutagenic call: inactive; negative
Test System: E. COLI, Strain/Indicator: WP2UVRA/PKM101, Metabolic Activation: RAT LIVER S-9, PHENOBARBITAL AND BETA-NAPHTHOFLAVONE, Method: PREINCUBATION
  mutagenic call: inactive; negative
Test System: E. COLI, Strain/Indicator: WP2UVRA, Metabolic Activation: NONE, Method: PREINCUBATION
  mutagenic call: inactive; negative
Test System: E. COLI, Strain/Indicator: WP2UVRA, Metabolic Activation: RAT LIVER S-9, PHENOBARBITAL AND BETA-NAPHTHOFLAVONE, Method: PREINCUBATION
  mutagenic call: inactive; negative
Test System: E.COLI, Strain/Indicator: WP2UVRA/PKM101, Metabolic Activation: NONE, Method: PREINCUBATION
  mutagenic call: inactive; negative
Test System: Mouse lymphoma, Strain/Indicator: L5178Y (tk+/tk-), Metabolic Activation: None, Method: Suspension/plate
  mutagenic call: inactive; negative
Test System: Mouse lymphoma, Strain/Indicator: L5178Y (tk+/tk-), Metabolic Activation: Rat, Liver, S-9, Aroclor 1254, Method: Suspension/plate
  mutagenic call: inactive; negative

## Oc1cc(O)cc(O)c1
Test System: AMES SALMONELLA TYPHIMURIUM, Strain/Indicator: TA97, Metabolic Activation: NONE, Method: PREINCUBATION
  mutagenic call: inactive; negative
Test System: AMES SALMONELLA TYPHIMURIUM, Strain/Indicator: TA97, Metabolic Activation: RAT, LIVER, S-9, PHENOBARBITAL, Method: PREINCUBATION
  mutagenic call: inactive; negative
Test System: AMES SALMONELLA TYPHIMURIUM, Strain/Indicator: TA98, Metabolic Activation: NONE
  mutagenic call: inactive; negative
[1]
  mutagenic call: inactive; negative
Test System: AMES SALMONELLA TYPHIMURIUM, Strain/Indicator: TA98, Metabolic Activation: RAT, LIVER, S-9, PHENOBARBITAL, Method: PREINCUBATION
  mutagenic call: inactive; negative
Test System: AMES SALMONELLA TYPHIMURIUM, Strain/Indicator: TA98, Metabolic Activation: S-9
  mutagenic call: inactive; negative
[3]
  mutagenic call: inactive; negative
Test System: AMES SALMONELLA TYPHIMURIUM, Strain/Indicator: TA100, Metabolic Activation: RAT, LIVER, S-9, PHENOBARBITAL, Method: PREINCUBATION
  mutagenic call: inactive; negative

## Oc1ccc2ccccc2c1N=Nc1ccc(N=Nc2ccccc2)cc1
[2]
  mutagenic call: inactive; negative
[4]
  mutagenic call: inactive; negative

## Nc1cc(Cl)cc(Cl)c1O
[1]
  mutagenic call: inactive; negative
[2]
  mutagenic call: inactive; negative
[3]
  mutagenic call: inactive; negative
[4]
  mutagenic call: inactive; negative
Test System: CHINESE HAMSTER V-79, Strain/Indicator: V-79/6-THIOGUANINE, Metabolic Activation: NONE
  mutagenic call: inactive; negative

## CCN=NC(C)(C)OO
Test System: AMES SALMONELLA TYPHIMURIUM, Strain/Indicator: TA1535, Metabolic Activation: NONE
  mutagenic call: inactive; negative
Test System: E. COLI, Strain/Indicator: WP2 (HCR-), Metabolic Activation: NONE
  mutagenic call: active; positive
